Experimental data from patent publication US20130157954A1, “METHODS FOR TREATMENT OR PROPHYLAXIS OF KIDNEY OR LIVER DYSFUNCTION” (NPS PHARMACEUTICALS, INC., priority 2010, published 2013).

Assay: Example 1: liver biomarkers (total bilirubin, ALT, AST, ALP) in short bowel syndrome patients, every four weeks for 24 weeks; also sorted by >5% change from baseline
Type: in vivo, Human
Details: for ALT (SGPT) change from baseline >5%, percent of patients / ALT (SGPT) change from baseline −5% <= and <=5%, number of patients / ALT (SGPT) change from baseline −5% <= and <=5%, percent of patients / AST (SGOT) change from baseline <−5%, number of patients / AST (SGOT) change from baseline <−5%, percent of patients / AST (SGOT) change from baseline >5%, number of patients / AST (SGOT) change from baseline >5%, percent of patients / AST (SGOT) change from baseline −5% <= and <=5%, number of patients / AST (SGOT) change from baseline −5% <= and <=5%, percent of patients / TOTAL BILIRUBIN change from baseline <−5%, number of patients / TOTAL BILIRUBIN change from baseline <−5%, percent of patients / TOTAL BILIRUBIN change from baseline >5%, number of patients / TOTAL BILIRUBIN change from baseline >5%, percent of patients / TOTAL BILIRUBIN change from baseline −5% <= and <=5%, number of patients / TOTAL BILIRUBIN change from baseline −5% <= and <=5%, percent of patients / ALKALINE PHOSPHATASE change from baseline <−5%, number of patients / ALKALINE PHOSPHATASE change from baseline <−5%, percent of patients / ALKALINE PHOSPHATASE change from baseline >5%, number of patients / ALKALINE PHOSPHATASE change from baseline >5%, percent of patients / ALKALINE PHOSPHATASE change from baseline −5% <= and <=5%, number of patients / ALKALINE PHOSPHATASE change from baseline −5% <= and <=5%, percent of patients / ALT (SGPT) change from baseline <−5%, number of patients / ALT (SGPT) change from baseline <−5%, percent of patients / ALT (SGPT) change from baseline >5%, number of patients: 0.1 mg/kg/day
Experimental: Human patients with short bowel syndrome were divided into three groups: a control group (16 total individuals) to receive placebo, an experimental group (35 total individuals) to receive teduglutide at 0.05 mg/kg/day throughout the study, and an experimental group (32 total individuals) to receive teduglutide at 0.1 mg/kg/day throughout the study. Patients were treated by subcutaneous injection of placebo or the appropriate dose of teduglutide. As individuals with short bowel syndrome are likely to experience associated liver and kidney disease, known biomarkers of liver and kidney function were monitored every four weeks, for 24 weeks. The liver biomarkers tested included total bilirubin, ALT and AST and ALP. The kidney biomarkers tested included urea nitrogen, creatinine and GFR. Before administration of placebo or teduglutide, diagnostic biomarker levels were tested to establish a baseline for each individual.
To visualize the effect of GLP-2 on the levels of the diagnostic biomarkers, the average change from baseline was calculated for the placebo and teduglutide treated groups for each visit after a baseline was established. The average change from baseline of each group is depicted in FIGS. 1-7. The numerical figures for each diagnostic biomarker at each time point are depicted in Table 1.
The efficacy of teduglutide in treating liver dysfunction was further tested by sorting the data into two groups: individuals with abnormal baseline values of liver diagnostic biomarkers; and individuals with normal baseline values of liver diagnostic biomarkers. The mean diagnostic biomarker change from baseline for these two groups is shown for ALT (FIGS. 5 and 6) and AST (FIGS. 7 and 8). […] These changes were significant when compared to baseline levels for the group, and when compared to placebo (see FIGS. 5 and 7).
The raw data for this sorting is reproduced in Table 2 below.

CC[C@H](C)[C@H](NC(=O)[C@H](Cc1ccccc1)NC(=O)[C@H](CC(=O)O)NC(=O)[C@H](CCCNC(=N)N)NC(=O)[C@H](C)NC(=O)[C@H](C)NC(=O)[C@H](CC(C)C)NC(=O)[C@H](CC(N)=O)NC(=O)[C@H](CC(=O)O)NC(=O)[C@H](CC(C)C)NC(=O)[C@@H](NC(=O)[C@@H](NC(=O)[C@H](CC(N)=O)NC(=O)[C@H](CCSC)NC(=O)[C@H](CCC(=O)O)NC(=O)[C@H](CC(=O)O)NC(=O)[C@H](CO)NC(=O)[C@H](Cc1ccccc1)NC(=O)[C@H](CO)NC(=O)CNC(=O)[C@H](CC(=O)O)NC(=O)CNC(=O)[C@@H](N)Cc1c[nH]cn1)[C@@H](C)O)[C@@H](C)CC)C(=O)N[C@@H](CC(N)=O)C(=O)N[C@@H](Cc1c[nH]c2ccccc12)C(=O)N[C@@H](CC(C)C)C(=O)N[C@H](C(=O)N[C@@H](CCC(N)=O)C(=O)N[C@H](C(=O)N[C@@H](CCCCN)C(=O)N[C@H](C(=O)N[C@H](C(=O)N[C@@H](CC(=O)O)C(=O)O)[C@@H](C)O)[C@@H](C)CC)[C@@H](C)O)[C@@H](C)CC [teduglutide]
ALT (SGPT) change from baseline >5%, percent of patients (week 12): (21.9%)
ALT (SGPT) change from baseline −5% <= and <=5%, number of patients (week 12): 2
ALT (SGPT) change from baseline −5% <= and <=5%, percent of patients (week 12): (6.3%)
AST (SGOT) change from baseline <−5%, number of patients (week 12): 15
AST (SGOT) change from baseline <−5%, percent of patients (week 12): (46.9%)
AST (SGOT) change from baseline >5%, number of patients (week 12): 10
AST (SGOT) change from baseline >5%, percent of patients (week 12): (31.3%)
AST (SGOT) change from baseline −5% <= and <=5%, number of patients (week 12): 3
AST (SGOT) change from baseline −5% <= and <=5%, percent of patients (week 12): (9.4%)
TOTAL BILIRUBIN change from baseline <−5%, number of patients (week 12): 14
TOTAL BILIRUBIN change from baseline <−5%, percent of patients (week 12): (43.8%)
TOTAL BILIRUBIN change from baseline >5%, number of patients (week 12): 9
TOTAL BILIRUBIN change from baseline >5%, percent of patients (week 12): (28.1%)
TOTAL BILIRUBIN change from baseline −5% <= and <=5%, number of patients (week 12): 6
TOTAL BILIRUBIN change from baseline −5% <= and <=5%, percent of patients (week 12): (18.8%)
ALKALINE PHOSPHATASE change from baseline <−5%, number of patients (week 16): 21
ALKALINE PHOSPHATASE change from baseline <−5%, percent of patients (week 16): (65.6%)
ALKALINE PHOSPHATASE change from baseline >5%, number of patients (week 16): 7
ALKALINE PHOSPHATASE change from baseline >5%, percent of patients (week 16): (21.9%)
ALKALINE PHOSPHATASE change from baseline −5% <= and <=5%, number of patients (week 16): 2
ALKALINE PHOSPHATASE change from baseline −5% <= and <=5%, percent of patients (week 16): (6.3%)
ALT (SGPT) change from baseline <−5%, number of patients (week 16): 19
ALT (SGPT) change from baseline <−5%, percent of patients (week 16): (59.4%)
ALT (SGPT) change from baseline >5%, number of patients (week 16): 9
ALT (SGPT) change from baseline >5%, percent of patients (week 16): (28.1%)
ALT (SGPT) change from baseline −5% <= and <=5%, number of patients (week 16): 2
ALT (SGPT) change from baseline −5% <= and <=5%, percent of patients (week 16): (6.3%)
AST (SGOT) change from baseline <−5%, number of patients (week 16): 18
AST (SGOT) change from baseline <−5%, percent of patients (week 16): (56.3%)
AST (SGOT) change from baseline >5%, number of patients (week 16): 8
AST (SGOT) change from baseline >5%, percent of patients (week 16): (25.0%)
AST (SGOT) change from baseline −5% <= and <=5%, number of patients (week 16): 3
AST (SGOT) change from baseline −5% <= and <=5%, percent of patients (week 16): (9.4%)
TOTAL BILIRUBIN change from baseline <−5%, number of patients (week 16): 14
TOTAL BILIRUBIN change from baseline <−5%, percent of patients (week 16): (43.8%)
TOTAL BILIRUBIN change from baseline >5%, number of patients (week 16): 6
TOTAL BILIRUBIN change from baseline >5%, percent of patients (week 16): (18.8%)
TOTAL BILIRUBIN change from baseline −5% <= and <=5%, number of patients (week 16): 8
TOTAL BILIRUBIN change from baseline −5% <= and <=5%, percent of patients (week 16): (25.0%)
ALKALINE PHOSPHATASE change from baseline <−5%, number of patients (week 20): 19
ALKALINE PHOSPHATASE change from baseline <−5%, percent of patients (week 20): (59.4%)
ALKALINE PHOSPHATASE change from baseline >5%, number of patients (week 20): 9
ALKALINE PHOSPHATASE change from baseline >5%, percent of patients (week 20): (28.1%)
ALKALINE PHOSPHATASE change from baseline −5% <= and <=5%, number of patients (week 20): 1
ALKALINE PHOSPHATASE change from baseline −5% <= and <=5%, percent of patients (week 20): (3.1%)
ALT (SGPT) change from baseline <−5%, number of patients (week 20): 19
ALT (SGPT) change from baseline <−5%, percent of patients (week 20): (59.4%)
ALT (SGPT) change from baseline >5%, number of patients (week 20): 8
ALT (SGPT) change from baseline >5%, percent of patients (week 20): (25.0%)
ALT (SGPT) change from baseline −5% <= and <=5%, number of patients (week 20): 2
ALT (SGPT) change from baseline −5% <= and <=5%, percent of patients (week 20): (6.3%)
AST (SGOT) change from baseline <−5%, number of patients (week 20): 16
AST (SGOT) change from baseline <−5%, percent of patients (week 20): (50.0%)
AST (SGOT) change from baseline >5%, number of patients (week 20): 9
AST (SGOT) change from baseline >5%, percent of patients (week 20): (28.1%)
AST (SGOT) change from baseline −5% <= and <=5%, number of patients (week 20): 3
AST (SGOT) change from baseline −5% <= and <=5%, percent of patients (week 20): (9.4%)
TOTAL BILIRUBIN change from baseline <−5%, number of patients (week 20): 14
TOTAL BILIRUBIN change from baseline <−5%, percent of patients (week 20): (43.8%)
TOTAL BILIRUBIN change from baseline >5%, number of patients (week 20): 9
TOTAL BILIRUBIN change from baseline >5%, percent of patients (week 20): (28.1%)
TOTAL BILIRUBIN change from baseline −5% <= and <=5%, number of patients (week 20): 6
TOTAL BILIRUBIN change from baseline −5% <= and <=5%, percent of patients (week 20): (18.8%)
ALKALINE PHOSPHATASE change from baseline <−5%, number of patients (week 24): 20
ALKALINE PHOSPHATASE change from baseline <−5%, percent of patients (week 24): (62.5%)
ALKALINE PHOSPHATASE change from baseline >5%, number of patients (week 24): 5
ALKALINE PHOSPHATASE change from baseline >5%, percent of patients (week 24): (15.6%)
ALKALINE PHOSPHATASE change from baseline −5% <= and <=5%, number of patients (week 24): 4
ALKALINE PHOSPHATASE change from baseline −5% <= and <=5%, percent of patients (week 24): (12.5%)
ALT (SGPT) change from baseline <−5%, number of patients (week 24): 18
ALT (SGPT) change from baseline <−5%, percent of patients (week 24): (56.3%)
ALT (SGPT) change from baseline >5%, number of patients (week 24): 11
ALT (SGPT) change from baseline >5%, percent of patients (week 24): (34.4%)
ALT (SGPT) change from baseline −5% <= and <=5%, number of patients (week 24): 0
ALT (SGPT) change from baseline −5% <= and <=5%, percent of patients (week 24): (0.0%)
AST (SGOT) change from baseline <−5%, number of patients (week 24): 15
AST (SGOT) change from baseline <−5%, percent of patients (week 24): (46.9%)
AST (SGOT) change from baseline >5%, number of patients (week 24): 11
AST (SGOT) change from baseline >5%, percent of patients (week 24): (34.4%)
AST (SGOT) change from baseline −5% <= and <=5%, number of patients (week 24): 3
AST (SGOT) change from baseline −5% <= and <=5%, percent of patients (week 24): (9.4%)
TOTAL BILIRUBIN change from baseline <−5%, number of patients (week 24): 11
TOTAL BILIRUBIN change from baseline <−5%, percent of patients (week 24): (34.4%)
TOTAL BILIRUBIN change from baseline >5%, number of patients (week 24): 10
TOTAL BILIRUBIN change from baseline >5%, percent of patients (week 24): (31.3%)
TOTAL BILIRUBIN change from baseline −5% <= and <=5%, number of patients (week 24): 6
TOTAL BILIRUBIN change from baseline −5% <= and <=5%, percent of patients (week 24): (18.8%)
fraction of individuals with a decrease of more than 5% in ALT vs placebo (beginning at 4 weeks after the commencement of treatment): greater fraction of individuals experiencing a decrease of more than 5%
ALT and AST change from baseline in patients with abnormal baseline values (FIGS. 5 and 7) (compared to baseline and compared to placebo): statistically significant improvements
average level of ALP relative to baseline (FIG. 4) (groups receiving teduglutide): decreased relative to baseline for the entire period of the study
percent of individuals with an increase of greater than 5% in ALP or ALT vs placebo (groups receiving teduglutide): effective prophylactic against increases in biomarkers associated with liver dysfunction
individuals experiencing a decrease in ALP greater than 5% from baseline (groups receiving teduglutide, within 4 weeks of the beginning of treatment): roughly 60%
average decrease in level of ALT compared to baseline (FIG. 1) (groups receiving teduglutide, maintained for the entire duration of the study): about 10 U/L
